Assay: Inhibition of Burkholderia pseudomallei beta-CA incubated for 15 mins by stopped-flow CO2 hydration assay

| SMILES | Ki |
| --- | --- |
| F[P-](F)(F)(F)(F)F.[Na+] | > 100 mM |
| OB(O)c1ccccc1 [PHENYLBORONIC ACID] | > 100 mM |
| [N-]=[N+]=[N-] [SODIUM AZIDE] | > 100 mM |
| O=S([O-])O.[Na+] [SODIUM BISULFITE] | > 100 mM |
| N#CO [SODIUM CYANATE] | 6.8 mM |
| [F-].[Na+] [SODIUM FLUORIDE] | > 100 mM |
| [O-][Cl+3]([O-])([O-])O [SODIUM PERCHLORATE] | > 100 mM |
| O=S(=O)(O)OOS(=O)(=O)O [SODIUM PERSULFATE] | > 100 mM |
| O=BOB(O)OB(O)OB=O [SODIUM TETRABORATE] | > 100 mM |
| F[B-](F)(F)F.[Na+] [SODIUM TETRAFLUOROBORATE] | > 100 mM |

From ChEMBL document CHEMBL4043124 (Bioorg Med Chem, 2017)
